Measurements reported in ChEMBL document CHEMBL1275533, “In vitro antibacterial activity of vertilmicin and its susceptibility to modifications by the recombinant AAC6'-APH2'' enzyme” (2008).
Values after ≈ are worked out from the molar mass of the structure shown. Active and inactive are the calls of the source. No cut-off for these calls is given here.

Legend:
Escherichia coli [1] = experiment: Antibacterial activity against non-gentamicin-resistant Escherichia coli clinical isolate after 18 hrs by agar dilution method; assay type: functional
Klebsiella pneumoniae [2] = experiment: Antibacterial activity against non-gentamicin-resistant Klebsiella pneumoniae clinical isolate after 18 hrs by agar dilution method; assay type: functional
Enterobacter cloacae [3] = experiment: Antibacterial activity against non-gentamicin-resistant Enterobacter cloacae clinical isolate after 18 hrs by agar dilution method; assay type: functional
Klebsiella aerogenes [4] = experiment: Antibacterial activity against non-gentamicin-resistant Enterobacter aerogenes clinical isolate after 18 hrs by agar dilution method; assay type: functional
Citrobacter koseri [5] = experiment: Antibacterial activity against non-gentamicin-resistant Citrobacter diversus clinical isolate after 18 hrs by agar dilution method; assay type: functional
Proteus mirabilis [6] = experiment: Antibacterial activity against non-gentamicin-resistant Proteus mirabilis clinical isolate after 18 hrs by agar dilution method; assay type: functional
Morganella morganii [7] = experiment: Antibacterial activity against non-gentamicin-resistant Morganella morganii clinical isolate after 18 hrs by agar dilution method; assay type: functional
Citrobacter freundii [8] = experiment: Antibacterial activity against non-gentamicin-resistant Citrobacter freundii clinical isolate after 18 hrs by agar dilution method; assay type: functional
Providencia rettgeri [9] = experiment: Antibacterial activity against non-gentamicin-resistant Proteus rettgeri clinical isolate after 18 hrs by agar dilution method; assay type: functional
Pseudomonas aeruginosa [10] = experiment: Antibacterial activity against non-gentamicin-resistant Pseudomonas aeruginosa clinical isolate after 18 hrs by agar dilution method; assay type: functional
Pseudomonas sp. [11] = experiment: Antibacterial activity against non-gentamicin-resistant Pseudomonas spp. clinical isolate after 18 hrs by agar dilution method; assay type: functional
Haemophilus influenzae = experiment: Antibacterial activity against non-gentamicin-resistant Haemophilus influenzae clinical isolate after 18 hrs by agar dilution method; assay type: functional
[12] = system: Haemophilus parainfluenzae; experiment: Antibacterial activity against non-gentamicin-resistant Haemophilus parainfluenzae clinical isolate after 18 hrs by agar dilution method; assay type: functional
Staphylococcus aureus [13] = experiment: Antibacterial activity against non-gentamicin-resistant Staphylococcus aureus clinical isolate after 18 hrs by agar dilution method; assay type: functional
Escherichia coli [14] = experiment: Antibacterial activity against non-gentamicin-resistant Escherichia coli clinical isolate assessed as susceptible isolates after 18 hrs by agar dilution method; assay type: functional
Klebsiella aerogenes [15] = experiment: Antibacterial activity against non-gentamicin-resistant Enterobacter aerogenes clinical isolate assessed as susceptible isolates after 18 hrs by agar dilution method; assay type: functional
Citrobacter koseri [16] = experiment: Antibacterial activity against non-gentamicin-resistant Citrobacter diversus clinical isolate assessed as susceptible isolates after 18 hrs by agar dilution method; assay type: functional
Proteus mirabilis [17] = experiment: Antibacterial activity against non-gentamicin-resistant Proteus mirabilis clinical isolate assessed as susceptible isolates after 18 hrs by agar dilution method; assay type: functional
Morganella morganii [18] = experiment: Antibacterial activity against non-gentamicin-resistant Morganella morganii clinical isolate assessed as susceptible isolates after 18 hrs by agar dilution method; assay type: functional
Providencia rettgeri [19] = experiment: Antibacterial activity against non-gentamicin-resistant Proteus rettgeri clinical isolate assessed as susceptible isolates after 18 hrs by agar dilution method; assay type: functional
Pseudomonas aeruginosa [20] = experiment: Antibacterial activity against non-gentamicin-resistant Pseudomonas aeruginosa clinical isolate assessed as susceptible isolates after 18 hrs by agar dilution method; assay type: functional
Pseudomonas sp. [21] = experiment: Antibacterial activity against non-gentamicin-resistant Pseudomonas spp. clinical isolate assessed as susceptible isolates after 18 hrs by agar dilution method; assay type: functional
Escherichia coli [22] = experiment: Antibacterial activity against gentamicin-resistant Escherichia coli clinical isolate after 18 hrs by agar dilution method; assay type: functional
Enterobacter cloacae [23] = experiment: Antibacterial activity against gentamicin-resistant Enterobacter cloacae clinical isolate after 18 hrs by agar dilution method; assay type: functional
Citrobacter koseri [24] = experiment: Antibacterial activity against gentamicin-resistant Citrobacter diversus clinical isolate after 18 hrs by agar dilution method; assay type: functional
Proteus mirabilis [25] = experiment: Antibacterial activity against gentamicin-resistant Proteus mirabilis clinical isolate after 18 hrs by agar dilution method; assay type: functional
Morganella morganii [26] = experiment: Antibacterial activity against gentamicin-resistant Morganella morganii clinical isolate after 18 hrs by agar dilution method; assay type: functional
Citrobacter freundii [27] = experiment: Antibacterial activity against gentamicin-resistant Citrobacter freundii clinical isolate after 18 hrs by agar dilution method; assay type: functional
[28] = system: Acinetobacter calcoaceticus; experiment: Antibacterial activity against gentamicin-resistant Acinetobacter calcoaceticus clinical isolate after 18 hrs by agar dilution method; assay type: functional
Pseudomonas aeruginosa [29] = experiment: Antibacterial activity against gentamicin-resistant Pseudomonas aeruginosa clinical isolate after 18 hrs by agar dilution method; assay type: functional
Staphylococcus aureus [30] = experiment: Antibacterial activity against gentamicin-resistant Staphylococcus aureus clinical isolate after 18 hrs by agar dilution method; assay type: functional
[31] = system: Staphylococcus epidermidis; experiment: Antibacterial activity against gentamicin-resistant Staphylococcus epidermidis clinical isolate after 18 hrs by agar dilution method; assay type: functional
Enterococcus faecalis [32] = experiment: Antibacterial activity against gentamicin-resistant Enterococcus faecalis clinical isolate after 18 hrs by agar dilution method; assay type: functional
Klebsiella pneumoniae [33] = experiment: Antibacterial activity against gentamicin-resistant Klebsiella pneumoniae clinical isolate assessed as susceptible isolates after 18 hrs by agar dilution method; assay type: functional
Enterobacter cloacae [34] = experiment: Antibacterial activity against gentamicin-resistant Enterobacter cloacae clinical isolate assessed as susceptible isolates after 18 hrs by agar dilution method; assay type: functional
Klebsiella aerogenes [35] = experiment: Antibacterial activity against gentamicin-resistant Enterobacter aerogenes clinical isolate assessed as susceptible isolates after 18 hrs by agar dilution method; assay type: functional
Serratia marcescens = experiment: Antibacterial activity against gentamicin-resistant Serratia marcescens clinical isolate assessed as susceptible isolates after 18 hrs by agar dilution method; assay type: functional
Morganella morganii [36] = experiment: Antibacterial activity against gentamicin-resistant Morganella morganii clinical isolate assessed as susceptible isolates after 18 hrs by agar dilution method; assay type: functional
Citrobacter freundii [37] = experiment: Antibacterial activity against gentamicin-resistant Citrobacter freundii clinical isolate assessed as susceptible isolates after 18 hrs by agar dilution method; assay type: functional
Providencia rettgeri [38] = experiment: Antibacterial activity against gentamicin-resistant Proteus rettgeri clinical isolate assessed as susceptible isolates after 18 hrs by agar dilution method; assay type: functional
[39] = system: Acinetobacter calcoaceticus; experiment: Antibacterial activity against gentamicin-resistant Acinetobacter calcoaceticus clinical isolate assessed as susceptible isolates after 18 hrs by agar dilution method; assay type: functional
Pseudomonas aeruginosa [40] = experiment: Antibacterial activity against gentamicin-resistant Pseudomonas aeruginosa clinical isolate assessed as susceptible isolates after 18 hrs by agar dilution method; assay type: functional
Staphylococcus aureus [41] = experiment: Antibacterial activity against gentamicin-resistant Staphylococcus aureus clinical isolate assessed as susceptible isolates after 18 hrs by agar dilution method; assay type: functional
[42] = system: Staphylococcus epidermidis; experiment: Antibacterial activity against gentamicin-resistant Staphylococcus epidermidis clinical isolate assessed as susceptible isolates after 18 hrs by agar dilution method; assay type: functional
Enterococcus faecalis [43] = experiment: Antibacterial activity against gentamicin-resistant Enterococcus faecalis clinical isolate assessed as susceptible isolates after 18 hrs by agar dilution method; assay type: functional, organism-based
[44] = system: Escherichia coli BL21(DE3); experiment: Acetylation activity of AAC(6')-APH(2'') in Escherichia coli BL21(DE3) assessed as production of free pyridine-4-thiolate

CCN[C@@H]1C[C@H](N)[C@@H](O[C@@H]2OC(C(C)N)=CC[C@@H]2N)[C@H](O)[C@H]1O[C@H]1OC[C@](C)(O)[C@H](NC)[C@H]1O (some centres not stated) [VERTILMICIN]
MIC50 (Escherichia coli [1]): 0.5 µg/mL (≈ 1.02 µM)
MIC90 (Escherichia coli [1]): 0.5 µg/mL (≈ 1.02 µM)
MIC50 (Klebsiella pneumoniae [2]): 0.25 µg/mL (≈ 0.511 µM)
MIC90 (Klebsiella pneumoniae [2]): 0.5 µg/mL (≈ 1.02 µM)
MIC50 (Enterobacter cloacae [3]): 0.25 µg/mL (≈ 0.511 µM)
MIC90 (Enterobacter cloacae [3]): 0.5 µg/mL (≈ 1.02 µM)
MIC50 (Klebsiella aerogenes [4]): 0.5 µg/mL (≈ 1.02 µM)
MIC90 (Klebsiella aerogenes [4]): 2 µg/mL (≈ 4.08 µM)
MIC (Citrobacter koseri [5]): 0.25 µg/mL (≈ 0.511 µM)
MIC50 (Citrobacter koseri [5]): 0.25 µg/mL (≈ 0.511 µM)
MIC90 (Citrobacter koseri [5]): 0.5 µg/mL (≈ 1.02 µM)
MIC50 (Proteus mirabilis [6]): 1 µg/mL (≈ 2.04 µM)
MIC90 (Proteus mirabilis [6]): 2 µg/mL (≈ 4.08 µM)
MIC50 (Morganella morganii [7]): 1 µg/mL (≈ 2.04 µM)
MIC90 (Morganella morganii [7]): 2 µg/mL (≈ 4.08 µM)
MIC50 (Citrobacter freundii [8]): 0.5 µg/mL (≈ 1.02 µM)
MIC90 (Citrobacter freundii [8]): 8 µg/mL (≈ 16.3 µM)
MIC50 (Providencia rettgeri [9]): 2 µg/mL (≈ 4.08 µM)
MIC90 (Providencia rettgeri [9]): 8 µg/mL (≈ 16.3 µM)
MIC50 (Pseudomonas aeruginosa [10]): 8 µg/mL (≈ 16.3 µM)
MIC90 (Pseudomonas aeruginosa [10]): 32 µg/mL (≈ 65.4 µM)
MIC50 (Pseudomonas sp. [11]): 8 µg/mL (≈ 16.3 µM)
MIC90 (Pseudomonas sp. [11]): 16 µg/mL (≈ 32.7 µM)
MIC50 (Haemophilus influenzae): 1 µg/mL (≈ 2.04 µM)
MIC90 (Haemophilus influenzae): 1 µg/mL (≈ 2.04 µM)
MIC50 [12]: 1 µg/mL (≈ 2.04 µM)
MIC90 [12]: 2 µg/mL (≈ 4.08 µM)
MIC50 (Staphylococcus aureus [13]): 0.125 µg/mL (≈ 0.255 µM)
MIC90 (Staphylococcus aureus [13]): 2 µg/mL (≈ 4.08 µM)
Activity (Escherichia coli [14]): 100%
Activity (Klebsiella aerogenes [15]): 98.1%
Activity (Citrobacter koseri [16]): 100%
Activity (Proteus mirabilis [17]): 98.4%
Activity (Morganella morganii [18]): 100%
Activity (Providencia rettgeri [19]): 92.3%
Activity (Pseudomonas aeruginosa [20]): 78.7%
Activity (Pseudomonas sp. [21]): 72.7%
MIC50 (Escherichia coli [22]): 8 µg/mL (≈ 16.3 µM)
MIC90 (Escherichia coli [22]): 64 µg/mL (≈ 131 µM)
MIC50 (Enterobacter cloacae [23]): 32 µg/mL (≈ 65.4 µM)
MIC90 (Enterobacter cloacae [23]): > 128 µg/mL
MIC50 (Citrobacter koseri [24]): 32 µg/mL (≈ 65.4 µM)
MIC90 (Citrobacter koseri [24]): > 128 µg/mL
MIC50 (Proteus mirabilis [25]): 32 µg/mL (≈ 65.4 µM)
MIC90 (Proteus mirabilis [25]): > 128 µg/mL
MIC50 (Morganella morganii [26]): 8 µg/mL (≈ 16.3 µM)
MIC90 (Morganella morganii [26]): 32 µg/mL (≈ 65.4 µM)
MIC50 (Citrobacter freundii [27]): 8 µg/mL (≈ 16.3 µM)
MIC90 (Citrobacter freundii [27]): 32 µg/mL (≈ 65.4 µM)
MIC50 [28]: 128 µg/mL (≈ 261 µM)
MIC90 [28]: > 128 µg/mL
MIC50 (Pseudomonas aeruginosa [29]): 32 µg/mL (≈ 65.4 µM)
MIC90 (Pseudomonas aeruginosa [29]): > 128 µg/mL
MIC50 (Staphylococcus aureus [30]): 4 µg/mL (≈ 8.17 µM)
MIC90 (Staphylococcus aureus [30]): 16 µg/mL (≈ 32.7 µM)
MIC50 [31]: 2 µg/mL (≈ 4.08 µM)
MIC90 [31]: 16 µg/mL (≈ 32.7 µM)
MIC50 (Enterococcus faecalis [32]): 4 µg/mL (≈ 8.17 µM)
MIC90 (Enterococcus faecalis [32]): > 128 µg/mL
Activity (Klebsiella pneumoniae [33]): 32.1%
Activity (Enterobacter cloacae [34]): 26.3%
Activity (Klebsiella aerogenes [35]): 30%
Activity (Serratia marcescens): 10%
Activity (Morganella morganii [36]): 50%
Activity (Citrobacter freundii [37]): 52.6%
Activity (Providencia rettgeri [38]): 53.3%
Activity [39]: 24%
Activity (Pseudomonas aeruginosa [40]): 17.6%
Activity (Staphylococcus aureus [41]): 83.3%
Activity [42]: 88.5%
Activity (Enterococcus faecalis [43]): inactive
Km [44]: 469 µM
